Laboratory results published in US20090264401A1, “SUBSTITUTED PYRIMIDIN-5-CARBOXAMIDES 281” (AstraZeneca AB, priority 2008, published 2009).

Target: T1, human 11βHSD1 enzyme (Homo sapiens, UniProt P28845)
T1 construct: baculovirus expressed N terminal 6-His tagged full length human 11βHSD1 enzyme; 6-His (N); made in house
Experiment: 11βHSD1 cortisone to cortisol conversion, competitive HTRF assay
Type: biochemical
Conditions: for inhibition at 30 µM: human 11-βHSD, test concentration of 30 μM of compound; for IC50: recombinant N terminal 6-His tagged full length human 11βHSD1, cortisone 160 nM, 25 minutes at 37° C.
Description: The evaluation of compounds described herein was carried out using a baculovirus expressed N terminal 6-His tagged full length human 11βHSD1 enzyme(*1). The enzyme was purified from a detergent solubilised cell lysate, using a copper chelate column. Inhibitors of 11βHSD1 reduce the conversion of cortisone to cortisol, which is identified by an increase in signal, in the above assay.
Compounds to be tested were dissolved in dimethyl sulphoxide (DMSO) to 10 mM and diluted further in assay buffer containing 1% DMSO to 10 fold the final assay concentration. Diluted compounds were then plated into black 384 well plates (Matrix, Hudson N.H., USA).
Fluorescence at 665 nm and 620 nm was measured and the 665 nm:620 nm ratio calculated using an Envision plate reader.

T1 sequence (P28845 whole entry): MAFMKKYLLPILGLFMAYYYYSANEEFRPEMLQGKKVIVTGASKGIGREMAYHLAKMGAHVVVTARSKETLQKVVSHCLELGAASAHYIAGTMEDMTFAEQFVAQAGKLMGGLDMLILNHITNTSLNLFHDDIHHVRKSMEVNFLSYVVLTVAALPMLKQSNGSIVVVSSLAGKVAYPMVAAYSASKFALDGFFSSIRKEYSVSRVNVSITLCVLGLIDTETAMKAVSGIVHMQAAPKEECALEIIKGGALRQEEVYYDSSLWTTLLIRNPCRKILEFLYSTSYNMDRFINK

Q: `CCCSc1nc(N2CCN(C(C)=O)CC2)ncc1C(=O)N[C@H]1C2CC3CC1C[C@@](O)(C3)C2` [Example 26, 2-(4-Acetylpiperazin-1-yl)-N-[(2r,5 s)-5-hydroxyadamantan-2-yl]-4-propylsulfanylpyrimidine-5-carboxamide] was tested. Which inhibition at 30 µM did it give?
A: Its inhibition at 30 µM is 89%.

Q: How did the inhibition at 30 µM turn out when `CCCSc1nc(N2CCN(C(C)=O)CC2)ncc1C(=O)NC1C2CC3CC(C2)CC1C3` (stereo not drawn) [Example 27, 2-(4-Acetylpiperazin-1-yl)-N-(2-adamantyl)-4-propylsulfanyl-pyrimidine-5-carboxamide] was run?
A: Its inhibition at 30 µM is 95.5%.

Q: With `CCCSc1nc(N2CCN(S(C)(=O)=O)CC2)ncc1C(=O)NC1C2CC3CC(C2)CC1C3` (stereo not drawn) [Example 28, N-(2-adamantyl)-2-(4-methylsulfonylpiperazin-1-yl)-4-propylsulfanyl-pyrimidine-5-carboxamide] as the compound, how does the inhibition at 30 µM read?
A: The inhibition at 30 µM was 103%.

Q: Which inhibition at 30 µM does the source give for `CCCSc1nc(N2CCN(C(=O)N(C)C)CC2)ncc1C(=O)NC1C2CC3CC(C2)CC1C3` (stereo not drawn) [Example 29, N-(2-adamantyl)-2-[4-(dimethylcarbamoyl)piperazin-1-yl]-4-propylsulfanyl-pyrimidine-5-carboxamide] here?
A: The inhibition at 30 µM was 100%.

Q: And the IC50?
A: Its IC50 is 13 nM.

Q: For `COc1ncc(C(=O)N[C@H]2C3CC4CC2C[C@@](O)(C4)C3)c(C2CC2)n1` [Example 33, 4-Cyclopropyl-N-[(2r,5s)-5-hydroxyadamantan-2-yl]-2-methoxypyrimidine-5-carboxamide], which inhibition at 30 µM is on record?
A: The inhibition at 30 µM was 97.5%.

Q: And the IC50?
A: Its IC50 is 33 nM.

Q: For `CNc1ncc(C(=O)N[C@H]2C3CC4CC2C[C@@](O)(C4)C3)c(C2CC2)n1` [Example 34, 4-Cyclopropyl-N-[(2r,5s)-5-hydroxyadamantan-2-yl]-2-methylaminopyrimidine-5-carboxamide], which inhibition at 30 µM is on record?
A: Its inhibition at 30 µM is 98%.

Q: For `O=C(N[C@H]1C2CC3CC1C[C@@](O)(C3)C2)c1cnc(N2CCSCC2)nc1C1CC1` [Example 35, 4-Cyclopropyl-N-[(2r,5s)-5-hydroxyadamantan-2-yl]-2-thiomorpholin-4-ylpyrimidine-5-carboxamide], which inhibition at 30 µM is on record?
A: The inhibition at 30 µM was 106%.

Q: `O=C(N[C@H]1C2CC3CC1C[C@@](O)(C3)C2)c1cnc(N2CC[S+]([O-])CC2)nc1C1CC1` [Example 36, 4-Cyclopropyl-N-[(2r,5s)-5-hydroxyadamantan-2-yl]-2-(1-oxo-1,4-thiazinan-4-yl)pyrimidine-5-carboxamide] was tested. Which inhibition at 30 µM did it give?
A: The inhibition at 30 µM was 99.5%.

Q: For `O=C(N[C@H]1C2CC3CC1C[C@@](O)(C3)C2)c1cnc(N2CCS(=O)(=O)CC2)nc1C1CC1` [Example 37, 4-Cyclopropyl-2-(1,1-dioxo-1,4-thiazinan-4-yl)-N-[(2r,5s)-5-hydroxyadamantan-2-yl]pyrimidine-5-carboxamide], which inhibition at 30 µM is on record?
A: Its inhibition at 30 µM is 93.5%.

Q: `O=C(N[C@H]1C2CC3CC1C[C@@](O)(C3)C2)c1cnc(N2CCSCC2)nc1C1CCC1` [Example 41, 4-Cyclobutyl-N-[(2r,5s)-5-hydroxyadamantan-2-yl]-2-thiomorpholin-4-ylpyrimidine-5-carboxamide] was tested. Which inhibition at 30 µM did it give?
A: The inhibition at 30 µM was 94%.

Q: How did the inhibition at 30 µM turn out when `C[C@@H]1CN(c2ncc(C(=O)N[C@H]3C4CC5CC3C[C@@](O)(C5)C4)c(C3CC3)n2)C[C@H](C)O1` [Example 42, 4-Cyclopropyl-2-(2,6-dimethylmorpholin-4-yl)-N-[(2r,5s)-5-hydroxyadamantan-2-yl]pyrimidine-5-carboxamide] was run?
A: Its inhibition at 30 µM is 99.4%.

Q: Which inhibition at 30 µM does the source give for `O=C(N[C@H]1C2CC3CC1C[C@@](O)(C3)C2)c1cnc(N2CCCSCC2)nc1C1CC1` [Example 43, 4-Cyclopropyl-N-[(2r,5s)-5-hydroxyadamantan-2-yl]-2-(1,4-thiazepan-4-yl)pyrimidine-5-carboxamide] here?
A: The inhibition at 30 µM was 99.2%.

Q: Which inhibition at 30 µM does the source give for `O=C(N[C@H]1C2CC3CC1C[C@@](O)(C3)C2)c1cnc(N2CCC[S+]([O-])CC2)nc1C1CC1` (stereo partly drawn) [Example 44, 4-Cyclopropyl-N-[(2r,5s)-5-hydroxyadamantan-2-yl]-2-(1-oxo-1,4-thiazepan-4-yl)pyrimidine-5-carboxamide] here?
A: Its inhibition at 30 µM is 98%.

Q: For `O=C(N[C@H]1C2CC3CC1C[C@@](O)(C3)C2)c1cnc(N2CCCS(=O)(=O)CC2)nc1C1CC1` [Example 45, 4-Cyclopropyl-2-(1,1-dioxo-1,4-thiazepan-4-yl)-N-[(2r,5s)-5-hydroxyadamantan-2-yl]pyrimidine-5-carboxamide], which inhibition at 30 µM is on record?
A: Its inhibition at 30 µM is 98.5%.

Q: How did the inhibition at 30 µM turn out when `O=C(N[C@H]1C2CC3CC1C[C@@](O)(C3)C2)c1cnc(N2CC3CC2CS3)nc1C1CC1` [Example 46, 4-Cyclopropyl-N-[(2r,5s)-5-hydroxyadamantan-2-yl]-2-(3-thia-6-azabicyclo[2.2.1]heptan-6-yl)pyrimidine-5-carboxamide] was run?
A: The inhibition at 30 µM was 104%.

Q: How did the inhibition at 30 µM turn out when `O=C(N[C@H]1C2CC3CC1C[C@@](O)(C3)C2)c1cnc(N2CC3CC2C[S+]3[O-])nc1C1CC1` (stereo partly drawn) [Example 47, 4-Cyclopropyl-N-[(2r,5s)-5-hydroxyadamantan-2-yl]-2-(3-oxo-3 ?4-thia-6-azabicyclo[2.2.1]heptan-6-yl)pyrimidine-5-carboxamide] was run?
A: The inhibition at 30 µM was 97.3%.

Q: `O=C(N[C@H]1C2CC3CC1C[C@@](O)(C3)C2)c1cnc(N2CC3CC2CS3(=O)=O)nc1C1CC1` [Example 48, 4-Cyclopropyl-2-(3,3-dioxo-3λ6-thia-6-azabicyclo[2.2.1]heptan-6-yl)-N-[(2r,5 s)-5-hydroxyadamantan-2-yl]pyrimidine-5-carboxamide] was tested. Which inhibition at 30 µM did it give?
A: The inhibition at 30 µM was 100%.

Q: Which inhibition at 30 µM does the source give for `Nc1ncc(C(=O)N[C@H]2C3CC4CC2C[C@@](O)(C4)C3)c(C2CC2)n1` [Example 49, 2-Amino-4-cyclopropyl-N-[(2r,5s)-5-hydroxyadamantan-2-yl]pyrimidine-5-carboxamide] here?
A: The inhibition at 30 µM was 99.3%.

Q: For `O=C(N[C@H]1C2CC3CC1C[C@@](O)(C3)C2)c1cnc(N2CC(F)(F)C2)nc1C1CC1` [Example 52, 4-cyclopropyl-2-(3,3-difluoroazetidin-1-yl)-N-[(2r,5s)-5-hydroxyadamantan-2-yl]pyrimidine-5-carboxamide], which inhibition at 30 µM is on record?
A: The inhibition at 30 µM was 92.5%.

Q: Which inhibition at 30 µM does the source give for `O=C(N[C@H]1C2CC3CC1C[C@@](O)(C3)C2)c1cnc(N2CCC2)nc1C1CC1` [Example 53, 2-(azetidin-1-yl)-4-cyclopropyl-N-[(2r,5s)-5-hydroxyadamantan-2-yl]pyrimidine-5-carboxamide] here?
A: The inhibition at 30 µM was 102%.

Q: How did the inhibition at 30 µM turn out when `O=C(N[C@H]1C2CC3CC1C[C@@](O)(C3)C2)c1cnc(NC2CCC2)nc1C1CC1` [Example 54, (cyclobutylamino)-4-cyclopropyl-N-[(2r,5s)-5-hydroxyadamantan-2-yl]pyrimidine-5-carboxamide] was run?
A: The inhibition at 30 µM was 102%.

Q: For `COCCN1CCN(c2ncc(C(=O)N[C@H]3C4CC5CC3C[C@@](O)(C5)C4)c(C3CC3)n2)CC1` [Example 55, 4-cyclopropyl-N-[(2r,5s)-5-hydroxyadamantan-2-yl]-2-[4-(2-methoxyethyl)piperazin-1-yl]pyrimidine-5-carboxamide], which inhibition at 30 µM is on record?
A: Its inhibition at 30 µM is 96.9%.

Q: With `O=C(N[C@H]1C2CC3CC1C[C@@](O)(C3)C2)c1cnc(NC2CC2)nc1C1CC1` [Example 56, 4-cyclopropyl-2-(cyclopropylamino)-N-[(2r,5s)-5-hydroxyadamantan-2-yl]pyrimidine-5-carboxamide] as the compound, how does the inhibition at 30 µM read?
A: The inhibition at 30 µM was 90.2%.

Q: For `O=C(N[C@H]1C2CC3CC1C[C@@](O)(C3)C2)c1cnc(NC2CCCC2)nc1C1CC1` [Example 57, 2-(cyclopentylamino)-4-cyclopropyl-N-[(2r,5s)-5-hydroxyadamantan-2-yl]pyrimidine-5-carboxamide], which inhibition at 30 µM is on record?
A: The inhibition at 30 µM was 102%.

Q: For `O=C(N[C@H]1C2CC3CC1C[C@@](O)(C3)C2)c1cnc(N2C[C@@H]3C[C@H]2CO3)nc1C1CC1` [Example 58, 4-cyclopropyl-N-[(2r,5s)-5-hydroxyadamantan-2-yl]-2-[(1S,4S)-2-oxa-5-azabicyclo[2.2.1]hept-5-yl]pyrimidine-5-carboxamide], which inhibition at 30 µM is on record?
A: Its inhibition at 30 µM is 99.6%.

Q: How did the inhibition at 30 µM turn out when `O=C(N[C@H]1C2CC3CC1C[C@@](O)(C3)C2)c1cnc(N2CCOC(CO)C2)nc1C1CC1` (stereo partly drawn) [Example 59, 4-cyclopropyl-N-[(2r,5s)-5-hydroxyadamantan-2-yl]-2-[2-(hydroxymethyl)morpholin-4-yl]pyrimidine-5-carboxamide] was run?
A: The inhibition at 30 µM was 95.6%.

Q: Which inhibition at 30 µM does the source give for `O=C(N[C@H]1C2CC3CC1C[C@@](O)(C3)C2)c1cnc(N2CCOCC2CO)nc1C1CC1` (stereo partly drawn) [Example 60, 4-cyclopropyl-N-[(2r,5s)-5-hydroxyadamantan-2-yl]-2-[3-(hydroxymethyl)morpholin-4-yl]pyrimidine-5-carboxamide] here?
A: Its inhibition at 30 µM is 95.1%.

Q: `CN(C)c1ncc(C(=O)N[C@H]2C3CC4CC2C[C@@](O)(C4)C3)c(C2CC2)n1` [Example 61, 4-cyclopropyl-2-(dimethylamino)-N-[(2r,5s)-5-hydroxyadamantan-2-yl]pyrimidine-5-carboxamide] was tested. Which inhibition at 30 µM did it give?
A: The inhibition at 30 µM was 105%.

Q: With `C[C@@H]1CN(c2ncc(C(=O)N[C@H]3C4CC5CC3C[C@@](O)(C5)C4)c(C3CC3)n2)C[C@H](C)N1` [Example 62, 4-cyclopropyl-2-[(3R,5S)-3,5-dimethylpiperazin-1-yl]-N-[(2r,5s)-5-hydroxyadamantan-2-yl]pyrimidine-5-carboxamide] as the compound, how does the inhibition at 30 µM read?
A: The inhibition at 30 µM was 99.9%.

Q: How did the inhibition at 30 µM turn out when `C[C@@H]1CN(c2ncc(C(=O)N[C@H]3C4CC5CC3C[C@@](O)(C5)C4)c(C3CC3)n2)C[C@@H](C)O1` [Example 63, 4-cyclopropyl-2-[(2R,6R)-2,6-dimethylmorpholin-4-yl]-N-[(2r,5s)-5-hydroxyadamantan-2-yl]pyrimidine-5-carboxamide] was run?
A: The inhibition at 30 µM was 92.7%.

Q: With `CC(C)Nc1ncc(C(=O)N[C@H]2C3CC4CC2C[C@@](O)(C4)C3)c(C2CC2)n1` [Example 64, 4-cyclopropyl-N-[(2r,5s)-5-hydroxyadamantan-2-yl]-2-(isopropylamino)pyrimidine-5-carboxamide] as the compound, how does the inhibition at 30 µM read?
A: Its inhibition at 30 µM is 95.9%.
